Measured values taken from patent US6566334B1, “Short amphipathic peptides with activity against bacteria and intracellular pathogens” (priority 1997, dated 2003).
Where a SMILES comes first, the peptide text is derived from it. [ ]: non-standard residue; d: D form. Ac6c = NC1(C(=O)O)CCCCC1; Api = NC1(C(=O)O)CCNCC1; Aib = CC(C)(N)C(=O)O

Columns and labels:
[1] = system: Escherichia coli, ATCC 25922; settings: for Peptide minimum inhibitory concentration, E. coli: MIC after 4 h, median of 3-7 tests, corrected for actual peptide concentration
trypsin = trypsin (Sus scrofa, UniProt P00761); assay: Resistance to trypsin, E. coli MIC assay after trypsin incubation; settings: trypsin 20 min at 37° C., then MIC assay with E. coli
trypsin, sequence (P00761 9-231): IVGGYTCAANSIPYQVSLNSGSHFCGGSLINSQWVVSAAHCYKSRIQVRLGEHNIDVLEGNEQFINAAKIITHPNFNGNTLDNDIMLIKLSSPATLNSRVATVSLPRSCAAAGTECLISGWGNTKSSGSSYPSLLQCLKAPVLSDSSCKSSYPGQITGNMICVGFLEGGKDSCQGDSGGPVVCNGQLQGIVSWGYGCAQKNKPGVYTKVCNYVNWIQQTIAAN

in vitro = settings: BALB/c, mouse, normal (non-infected) primary murine peritoneal macrophages, Normal Macrophage Survival Rate
[2] = system: Normal murine macrophages; settings: 10 μM
[3] = system: Staphylococcus aureus, ATCC 25723; settings: for Peptide minimum inhibitory concentration, S. aureus: MIC after 4 h, median of 3-7 tests, corrected for actual peptide concentration
[4] = system: B. abortus infected BALB/c mice; settings: mouse, in vivo
Solubility in water = settings: without any organic modifier present
[5] = Circular dichroism (CD) in SDS micelles, percent helicity; assay type: physicochemical
B. abortus strain 2308 = system: B. abortus strain 2308; set-up: species or system BALB/c mice; settings: mouse, in vivo; for % Bacterial Reduction: iv
[6] = system: Murine macrophages infected with virulent B. abortus, strain 2308; assay type: cell-based, BALB/c mice

Row | Molecule | Peptide minimum inhibitory concentration, E. coli [1] [µM] | Effect of incubation with trypsin on antibacterial activity (trypsin) | viability at 1 h, 0.1 µM (in vitro) [%] | viability at 1 h, 1 µM (in vitro) [%] | viability at 1 h, 10 µM (in vitro) [%] | viability at 1 h, 50 µM (in vitro) [%] | Peptide minimum inhibitory concentration, S. aureus [3] [µM] | Stress or death of infected mice after treatment [4] | further results
1 | CC(C)(NC(=O)C(C)(C)NC(=O)[C@H](CCCCN)NC(=O)[C@H](CCCCN)NC(=O)C(C)(C)NC(=O)C(C)(C)NC(=O)[C@H](CCCCN)NC(=O)C(C)(C)NC(=O)C(C)(C)NC(=O)[C@H](CCCCN)NC(=O)[C@@H](N)CCCCN)C(N)=O [Ai-11, H—LysLysAibAibLysAibAibLysLysAibAib—NH2] (H-KK[Aib][Aib]K[Aib][Aib]KK[Aib][Aib]-NH2) | 55 | did not decrease antibacterial activity | 88 | 89 | 81 | 56.6 | >220 |  | Effect of peptide treatment on normal macrophages (in words) [2]: small effect
2 | CC(=O)N[C@@H](CCCCN)C(=O)N[C@@H](CCCCN)C(=O)NC(C)(C)C(=O)NC(C)(C)C(=O)N[C@@H](CCCCN)C(=O)NC(C)(C)C(=O)NC(C)(C)C(=O)N[C@@H](CCCCN)C(=O)N[C@@H](CCCCN)C(=O)NC(C)(C)C(=O)NC(C)(C)C(N)=O [Ai-11-ac, Ac—LysLysAibAibLysAibAibLysLysAibAib—NH2] (Ac-KK[Aib][Aib]K[Aib][Aib]KK[Aib][Aib]-NH2) | 6.6 | did not decrease antibacterial activity | 92 | 82 | 86 | 58.5 | 212 |  | Effect of peptide treatment on normal macrophages (in words) [2]: small effect
3 | CC(C)(NC(=O)C(C)(C)NC(=O)[C@H](CCCCN)NC(=O)[C@H](CCCCN)NC(=O)C(C)(C)NC(=O)C(C)(C)NC(=O)[C@H](CCCCN)NC(=O)C(C)(C)NC(=O)C(C)(C)NC(=O)[C@H](CCCCN)NC(=O)[C@H](CCCCN)NC(=O)C(C)(C)NC(=O)C(C)(C)NC(=O)[C@@H](N)CCCCN)C(N)=O [Ai-14, H—LysAibAibLysLysAibAibLysAibAibLysLysAibAib—NH2] (H-K[Aib][Aib]KK[Aib][Aib]K[Aib][Aib]KK[Aib][Aib]-NH2) | 5.5 | did not decrease antibacterial activity | 91 | 88 | 88 | 57 | 11 |  | 
4 | NCCCC[C@H](NC(=O)[C@H](CCCCN)NC(=O)C1(NC(=O)C2(NC(=O)[C@H](CCCCN)NC(=O)C3(NC(=O)C4(NC(=O)[C@H](CCCCN)NC(=O)[C@@H](N)CCCCN)CCCCC4)CCCCC3)CCCCC2)CCCCC1)C(=O)NC1(C(N)=O)CCCCC1 [Ch-10, H—LysLysChChLysChChLysLysCh—NH2] (H-KK[Ac6c][Ac6c]K[Ac6c][Ac6c]KK[Ac6c]-NH2) | 5.7 | did not decrease antibacterial activity |  |  |  |  | 2.8 | died immediately after treatment | Survival of infected mice after treatment [4]: lived
5 | NCCCC[C@H](NC(=O)[C@H](CCCCN)NC(=O)C1(NC(=O)C2(NC(=O)[C@H](CCCCN)NC(=O)C3(NC(=O)C4(NC(=O)[C@H](CCCCN)NC(=O)[C@@H](N)CCCCN)CCCCC4)CCCCC3)CCCCC2)CCCCC1)C(=O)NC1(C(=O)NC2(C(N)=O)CCCCC2)CCCCC1 [Ch-11, H—LysLysChChLysChChLysLysChCh—NH2] (H-KK[Ac6c][Ac6c]K[Ac6c][Ac6c]KK[Ac6c][Ac6c]-NH2) | 5.2 |  |  |  |  |  | 2.6 |  | 
6 | NCCCC[C@H](NC(=O)[C@H](CCCCN)NC(=O)C1(NC(=O)C2(NC(=O)[C@H](CCCCN)NC(=O)C3(NC(=O)C4(NC(=O)[C@H](CCCCN)NC(=O)[C@H](CCCCN)NC(=O)C5(NC(=O)C6(NC(=O)[C@@H](N)CCCCN)CCCCC6)CCCCC5)CCCCC4)CCCCC3)CCCCC2)CCCCC1)C(=O)NC1(C(N)=O)CCCCC1 [Ch-13, H—LysChChLysLysChChLysChChLysLysCh—NH2] (H-K[Ac6c][Ac6c]KK[Ac6c][Ac6c]K[Ac6c][Ac6c]KK[Ac6c]-NH2) | 6.5 | did not decrease antibacterial activity |  |  |  |  | 2.2 | died immediately after treatment | Survival of infected mice after treatment [4]: lived
7 | CC(C)(NC(=O)[C@H](CCCCN)NC(=O)C(C)(C)NC(=O)C(C)(C)NC(=O)C1(N)CCNCC1)C(=O)NC(C)(C)C(=O)N[C@@H](CCCCN)C(=O)NC(C)(C)C(=O)NC(C)(C)C(=O)NC1(C(N)=O)CCNCC1 [Ipi-10, H—ApiAibAibLysAibAibLysAibAibApi—NH2] (H-[Api][Aib][Aib]K[Aib][Aib]K[Aib][Aib][Api]-NH2) |  | did not decrease antibacterial activity |  |  |  |  |  | did not die, but showed physiological signs of stress | Solubility in water (Solubility in water): readily soluble in water; 222/206 intensity ratio (CD) ([5]; in the presence of SDS micelles): 0.32; % Bacterial Reduction (B. abortus strain 2308): 55%
8 | CC(=O)NC1(C(=O)NC(C)(C)C(=O)NC(C)(C)C(=O)N[C@@H](CCCCN)C(=O)NC(C)(C)C(=O)NC(C)(C)C(=O)N[C@@H](CCCCN)C(=O)NC(C)(C)C(=O)NC(C)(C)C(=O)NC2(C(N)=O)CCNCC2)CCNCC1 [Ipi-10-ac, Ac—ApiAibAibLysAibAibLysAibAibApi—NH2] (Ac-[Api][Aib][Aib]K[Aib][Aib]K[Aib][Aib][Api]-NH2) |  |  |  |  |  |  |  | did not die, but showed physiological signs of stress | 
9 | CC(C)(N)C(=O)NC(C)(C)C(=O)NC1(C(=O)N[C@@H](CCCCN)C(=O)NC(C)(C)C(=O)NC(C)(C)C(=O)NC2(C(=O)N[C@@H](CCCCN)C(=O)NC(C)(C)C(=O)NC(C)(C)C(N)=O)CCNCC2)CCNCC1 [Pi-10, H—AibAibApiLysAibAibApiLysAibAib—NH2] (H-[Aib][Aib][Api]K[Aib][Aib][Api]K[Aib][Aib]-NH2) |  | did not decrease antibacterial activity | 95 | 89 | 90 | 68 |  |  | Antibacterial activity against E. coli (in words) [1]: good antibacterial activity; Infected Macrophage Survival Rate [6]: 55.0 ± 1.00; Solubility in water (Solubility in water): readily soluble in water; % Helicity (% α helix) ([5]; CD, 25 mM SDS micelles, 100-200 μM peptide): 43%; Antibacterial activity against S. aureus (in words) [3]: moderate activity; Reduction of bacterial load compared to controls (in words) (B. abortus strain 2308): significantly reduced bacterial load; % Bacterial Reduction (B. abortus strain 2308): 90%
10 | CC(=O)NC(C)(C)C(=O)NC(C)(C)C(=O)NC1(C(=O)N[C@@H](CCCCN)C(=O)NC(C)(C)C(=O)NC(C)(C)C(=O)NC2(C(=O)N[C@@H](CCCCN)C(=O)NC(C)(C)C(=O)NC(C)(C)C(N)=O)CCNCC2)CCNCC1 [Pi-10-ac, Ac—AibAibApiLysAibAibApiLysAibAib—NH2] (Ac-[Aib][Aib][Api]K[Aib][Aib][Api]K[Aib][Aib]-NH2) |  |  | 92 | 89 | 88 | 49 |  | died immediately after treatment | 
11 | H-GIGKFLHSAKKFGKAFVGEIMNS-OH [magainin 2, reference compound] |  | destroyed antibacterial activity |  |  |  |  |  |  | 
12 | H-KAAKKAAKAAKKAA-NH2 [Al-14, H—LysAlaAlaLysLysAlaAlaLysAlaAlaLysLysAlaAla—NH2, reference compound] | >178 |  |  |  |  |  | >178 |  | % Bacterial Reduction (B. abortus strain 2308): −6%
13 | H-KWKVFKKIEKMGRNIRNGIVKAGPAIAVLGEAKAL-NH2 [cecropin B, reference compound] |  | destroyed antibacterial activity |  |  |  |  |  |  | 
